Source: ChEMBL document CHEMBL1201862, “PubChem BioAssay data set” (2004)
Calls of active or inactive are those of the source.

Key:
ORF 73 = biological target: T1, ORF 73 (Human herpesvirus 8, UniProt O40947); test: inhibitors of C-LANA binding to LBS DNA, dose response, biochemical, fluorescence polarization, cherry-picked samples (AID 504725); set-up: species or system Human gammaherpesvirus 8;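 note: fluorescence polarization of a labeled DNA duplex reporting LANA DNA binding; potency is for inhibitors that block LANA binding to the DNA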
T1 sequence (O40947 whole entry): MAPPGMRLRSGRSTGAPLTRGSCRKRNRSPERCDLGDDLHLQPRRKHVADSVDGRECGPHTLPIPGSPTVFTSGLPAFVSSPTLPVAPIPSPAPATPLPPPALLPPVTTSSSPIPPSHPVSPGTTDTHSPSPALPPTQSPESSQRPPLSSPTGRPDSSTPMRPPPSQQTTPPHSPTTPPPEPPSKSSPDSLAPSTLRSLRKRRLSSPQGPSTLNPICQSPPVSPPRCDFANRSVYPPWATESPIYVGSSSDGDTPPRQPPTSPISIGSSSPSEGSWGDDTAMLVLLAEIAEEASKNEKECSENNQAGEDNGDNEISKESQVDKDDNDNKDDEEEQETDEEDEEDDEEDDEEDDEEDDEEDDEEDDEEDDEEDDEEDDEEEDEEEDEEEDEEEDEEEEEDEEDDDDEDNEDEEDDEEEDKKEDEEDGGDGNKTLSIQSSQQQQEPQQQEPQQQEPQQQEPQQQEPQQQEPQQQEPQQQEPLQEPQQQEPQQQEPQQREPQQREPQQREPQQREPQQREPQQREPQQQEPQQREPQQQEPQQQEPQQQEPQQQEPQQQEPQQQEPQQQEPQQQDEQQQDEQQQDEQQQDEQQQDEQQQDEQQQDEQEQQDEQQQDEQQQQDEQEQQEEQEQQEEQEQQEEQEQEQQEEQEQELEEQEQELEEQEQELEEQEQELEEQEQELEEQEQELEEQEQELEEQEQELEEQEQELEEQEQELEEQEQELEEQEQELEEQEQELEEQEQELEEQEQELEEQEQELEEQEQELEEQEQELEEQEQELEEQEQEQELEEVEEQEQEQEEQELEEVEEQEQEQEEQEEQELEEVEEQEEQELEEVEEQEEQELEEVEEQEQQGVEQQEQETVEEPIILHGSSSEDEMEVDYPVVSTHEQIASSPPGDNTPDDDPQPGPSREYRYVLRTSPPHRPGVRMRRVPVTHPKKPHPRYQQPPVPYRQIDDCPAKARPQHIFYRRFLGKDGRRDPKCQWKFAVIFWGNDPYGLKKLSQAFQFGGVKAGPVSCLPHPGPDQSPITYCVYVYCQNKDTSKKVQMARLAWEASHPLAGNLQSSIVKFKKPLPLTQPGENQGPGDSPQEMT

Protein skinhead-1 = biological target: T2, Protein skinhead-1 (Caenorhabditis elegans, UniProt P34707); assay type: functional
T2 sequence (P34707 whole entry): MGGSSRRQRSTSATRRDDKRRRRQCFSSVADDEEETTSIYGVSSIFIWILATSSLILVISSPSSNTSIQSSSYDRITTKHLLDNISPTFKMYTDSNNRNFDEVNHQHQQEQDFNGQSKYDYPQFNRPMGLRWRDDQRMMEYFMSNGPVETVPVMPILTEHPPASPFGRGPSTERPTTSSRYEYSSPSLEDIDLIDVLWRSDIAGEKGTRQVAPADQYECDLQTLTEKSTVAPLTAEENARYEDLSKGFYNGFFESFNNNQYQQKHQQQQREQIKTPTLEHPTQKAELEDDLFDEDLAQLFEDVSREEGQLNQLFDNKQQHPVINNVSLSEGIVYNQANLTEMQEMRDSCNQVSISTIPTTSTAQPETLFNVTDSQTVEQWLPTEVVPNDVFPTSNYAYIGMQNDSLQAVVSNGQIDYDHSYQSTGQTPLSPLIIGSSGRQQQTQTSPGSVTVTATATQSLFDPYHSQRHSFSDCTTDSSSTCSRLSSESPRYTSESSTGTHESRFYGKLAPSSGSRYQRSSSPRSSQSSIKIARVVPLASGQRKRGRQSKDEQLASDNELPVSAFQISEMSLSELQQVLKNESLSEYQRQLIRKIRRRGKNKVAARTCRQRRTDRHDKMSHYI

[1] = cytotoxicity in HEK-293T cells, dose response, cytotoxicity control for TCR NF-kB inhibitor project, luminescence, T-cell screen hits (AID 489026); assay type: functional, cell-based;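 note: cells exposed to compound about 14 hours before the viability readout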
[2] = biological target: T3, Endoribonuclease toxin MazF (Escherichia coli K-12, UniProt P0AE70); test: MazF toxin RNase activators, dose response, biochemical, fluorescence, single-stranded RNA substrate, uHTS hits (AID 588481); assay type: functional
T3 sequence (P0AE70 whole entry): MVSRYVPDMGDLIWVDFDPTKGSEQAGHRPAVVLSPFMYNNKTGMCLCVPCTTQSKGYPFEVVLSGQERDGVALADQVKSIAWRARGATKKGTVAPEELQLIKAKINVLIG

[3] = biological target: T3, Endoribonuclease toxin MazF; test: fluorescent RNA oligo signal without MazF, dose response, counter-screen for MazEF activator project, biochemical, fluorescence, single-stranded RNase substrate (AID 588502); assay type: functional
[4] = THP-1 cell cytotoxicity, dose response, cytotoxicity control for non-replicating M. tuberculosis project (AID 489025); assay type: functional
[5] = Vero E6 cell cytotoxicity, dose response, cytotoxicity control for non-replicating M. tuberculosis project, secondary assay (AID 492998); assay type: functional, VeroE6; conditions: Vero C1008
cells = assay type: functional
[6] = biological target: T4, E3 ubiquitin-protein ligase XIAP (Homo sapiens, UniProt P98170); test: Counter Screen using XIAP-Bir3 for Chemical Antagonists of Bir1/2 domains of IAP-family anti-apoptotic proteins. [Related pubchem assays (depositor defined):AID1018, AID1449, AID1514, AID1638, AID1749, AID1750, AID488957, AID488963]
[7] = biological target: T4, E3 ubiquitin-protein ligase XIAP; test: XIAP antagonists, biochemical, IAP family, fluorescence polarization (AID 1018); assay type: functional
[8] = biological target: T5, Voltage-gated N-type calcium channel alpha-1B subunit/Amyloid beta A4 precursor protein-binding family A member 1 (Homo sapiens, UniProt Q00975+Q02410); assay type: protein assay
[9] = biological target: T6, Heat shock factor protein 1 (Mus musculus, UniProt P38532); test: inhibition of MG132-induced HSE-luciferase signal, confirmation, cell-based, NIH3T3, luminescence, dose retest (AID 2382); assay type: functional;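 note: NIH3T3 fibroblasts with HSF1-driven luciferase reporter stressed by proteasome inhibitor MG132; luminescence from HSF1-driven luciferase expression after 8 hours of MG132 stress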
T6 sequence (P38532 whole entry): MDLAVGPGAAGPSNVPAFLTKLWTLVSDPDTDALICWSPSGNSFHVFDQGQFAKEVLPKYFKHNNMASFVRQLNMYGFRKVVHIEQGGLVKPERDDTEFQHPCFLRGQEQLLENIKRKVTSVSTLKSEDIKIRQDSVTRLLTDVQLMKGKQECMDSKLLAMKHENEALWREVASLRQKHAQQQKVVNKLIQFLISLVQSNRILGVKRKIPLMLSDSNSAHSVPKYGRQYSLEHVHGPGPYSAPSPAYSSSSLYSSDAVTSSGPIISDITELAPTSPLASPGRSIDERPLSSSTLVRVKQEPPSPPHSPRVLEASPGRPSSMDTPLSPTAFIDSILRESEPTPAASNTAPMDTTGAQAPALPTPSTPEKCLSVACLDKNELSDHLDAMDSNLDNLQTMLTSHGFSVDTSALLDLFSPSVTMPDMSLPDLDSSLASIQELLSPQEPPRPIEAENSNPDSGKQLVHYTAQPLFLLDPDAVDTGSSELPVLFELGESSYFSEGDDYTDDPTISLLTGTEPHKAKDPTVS

[10] = biological target: T5, Voltage-gated N-type calcium channel alpha-1B subunit/Amyloid beta A4 precursor protein-binding family A member 1; assay type: protein assay; remark: listed apart in the source
[11] = Luminescence Cell-Based Dose Retest to Confirm Inhibitors of Cancer Stem Cells. [Related pubchem assays (depositor defined):AID2717, AID2721]; assay type: functional; conditions: Homo sapiens
[12] = insulin promoter down-regulators in MIN6 cells, imaging, high-content screening, mouse beta cells (AID 1628); assay type: functional
[13] = cytotoxicity in MIN6 insulinoma cells, dose response, cytotoxicity control, cell-based, mouse insulinoma (AID 2122); assay type: functional;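 note: confirmatory high-throughput counterscreen run to flag cytotoxic compounds; mouse MIN-6 beta cells carrying an insulin promoter eGFP reporter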
[14] = biological target: T7, Mannose-6-phosphate isomerase (Homo sapiens, UniProt P34949); test: PMI enzyme inhibitors, confirmation, biochemical, fluorescence intensity (AID 1535)
T7 sequence (P34949 whole entry): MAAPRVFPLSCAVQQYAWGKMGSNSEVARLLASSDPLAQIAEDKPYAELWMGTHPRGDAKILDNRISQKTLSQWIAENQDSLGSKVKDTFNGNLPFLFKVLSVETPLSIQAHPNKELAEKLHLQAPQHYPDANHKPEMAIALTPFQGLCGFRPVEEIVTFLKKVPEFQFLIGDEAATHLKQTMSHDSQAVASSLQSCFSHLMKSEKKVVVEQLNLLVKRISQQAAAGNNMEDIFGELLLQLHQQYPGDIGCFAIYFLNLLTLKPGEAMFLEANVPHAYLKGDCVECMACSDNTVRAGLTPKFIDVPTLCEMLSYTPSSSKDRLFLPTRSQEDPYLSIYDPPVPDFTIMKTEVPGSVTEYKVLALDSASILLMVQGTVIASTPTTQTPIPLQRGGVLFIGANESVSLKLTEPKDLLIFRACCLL

Phosphomannomutase 2 = biological target: T8, Phosphomannomutase 2 (Homo sapiens, UniProt O15305); test: Counter screen SAR assay for PMM2 inhibitors via a fluorescence intensity assay. [Related pubchem assays (depositor defined):AID1545, AID1574]
T8 sequence (O15305 whole entry): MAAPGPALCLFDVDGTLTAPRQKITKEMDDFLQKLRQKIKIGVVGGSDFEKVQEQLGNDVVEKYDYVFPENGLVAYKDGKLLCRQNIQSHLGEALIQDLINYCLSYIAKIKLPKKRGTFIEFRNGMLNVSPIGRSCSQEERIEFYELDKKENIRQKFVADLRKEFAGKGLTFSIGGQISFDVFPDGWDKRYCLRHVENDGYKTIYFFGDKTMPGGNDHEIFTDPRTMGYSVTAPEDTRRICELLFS

[15] = biological target: T9, Phosphoethanolamine/phosphocholine phosphatase (Homo sapiens, UniProt Q8TCT1); test: SAR assay for compounds that inhibit PHOSPHO1. [Related pubchem assays (depositor defined):AID1545, AID1565, AID1574]
T9 sequence (Q8TCT1 whole entry): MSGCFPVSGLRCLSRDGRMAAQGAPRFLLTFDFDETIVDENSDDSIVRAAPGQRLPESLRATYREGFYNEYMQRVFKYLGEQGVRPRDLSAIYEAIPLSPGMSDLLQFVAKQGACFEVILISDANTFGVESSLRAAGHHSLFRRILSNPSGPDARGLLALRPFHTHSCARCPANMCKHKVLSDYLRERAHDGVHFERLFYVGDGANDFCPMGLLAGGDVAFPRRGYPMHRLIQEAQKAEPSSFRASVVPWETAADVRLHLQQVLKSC

[16] = Luminescence Cell-Based Dose Confirmation HTS to Identify Activators of 5'UTR Stem-Loop Driven Alpha-Synuclein mRNA Translation in H4 Neuroglioblastoma Cells. [Related pubchem assays: 1829 (Project Summary), 1814 (Primary HTS)]; assay type: functional
[17] = Luminescence Cell-Based Dose Response HTS to Identify Activators of Luciferase Translation or Activity in H4 […] Cells. [Related pubchem assays: 1829 (Project Summary), 1814 (Primary HTS)]; assay type: functional
H4 = test: Luminescence Cell-Based Dose Response HTS to Identify Activators of 5'UTR Stem-Loop Driven Prion Protein mRNA Translation in H4 Neuroglioblastoma Cells. [Related pubchem assays: 1829 (Project Summary), 1814 (Primary HTS)]; assay type: functional; conditions: Homo sapiens

T4 sequence (P98170 whole entry): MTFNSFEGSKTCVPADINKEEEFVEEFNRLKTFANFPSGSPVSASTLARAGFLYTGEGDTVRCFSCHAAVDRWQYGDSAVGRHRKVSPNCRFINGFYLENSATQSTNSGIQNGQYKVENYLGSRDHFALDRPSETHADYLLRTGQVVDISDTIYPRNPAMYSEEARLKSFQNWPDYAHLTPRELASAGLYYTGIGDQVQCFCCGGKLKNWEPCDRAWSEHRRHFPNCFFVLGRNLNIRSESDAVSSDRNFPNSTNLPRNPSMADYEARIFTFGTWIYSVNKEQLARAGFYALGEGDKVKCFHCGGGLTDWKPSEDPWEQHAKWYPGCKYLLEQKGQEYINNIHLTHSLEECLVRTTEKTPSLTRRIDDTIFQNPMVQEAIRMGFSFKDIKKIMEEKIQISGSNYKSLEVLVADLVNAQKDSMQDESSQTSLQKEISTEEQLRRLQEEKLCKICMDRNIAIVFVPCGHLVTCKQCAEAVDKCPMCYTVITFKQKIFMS
T5 sequence (Q00975 whole entry): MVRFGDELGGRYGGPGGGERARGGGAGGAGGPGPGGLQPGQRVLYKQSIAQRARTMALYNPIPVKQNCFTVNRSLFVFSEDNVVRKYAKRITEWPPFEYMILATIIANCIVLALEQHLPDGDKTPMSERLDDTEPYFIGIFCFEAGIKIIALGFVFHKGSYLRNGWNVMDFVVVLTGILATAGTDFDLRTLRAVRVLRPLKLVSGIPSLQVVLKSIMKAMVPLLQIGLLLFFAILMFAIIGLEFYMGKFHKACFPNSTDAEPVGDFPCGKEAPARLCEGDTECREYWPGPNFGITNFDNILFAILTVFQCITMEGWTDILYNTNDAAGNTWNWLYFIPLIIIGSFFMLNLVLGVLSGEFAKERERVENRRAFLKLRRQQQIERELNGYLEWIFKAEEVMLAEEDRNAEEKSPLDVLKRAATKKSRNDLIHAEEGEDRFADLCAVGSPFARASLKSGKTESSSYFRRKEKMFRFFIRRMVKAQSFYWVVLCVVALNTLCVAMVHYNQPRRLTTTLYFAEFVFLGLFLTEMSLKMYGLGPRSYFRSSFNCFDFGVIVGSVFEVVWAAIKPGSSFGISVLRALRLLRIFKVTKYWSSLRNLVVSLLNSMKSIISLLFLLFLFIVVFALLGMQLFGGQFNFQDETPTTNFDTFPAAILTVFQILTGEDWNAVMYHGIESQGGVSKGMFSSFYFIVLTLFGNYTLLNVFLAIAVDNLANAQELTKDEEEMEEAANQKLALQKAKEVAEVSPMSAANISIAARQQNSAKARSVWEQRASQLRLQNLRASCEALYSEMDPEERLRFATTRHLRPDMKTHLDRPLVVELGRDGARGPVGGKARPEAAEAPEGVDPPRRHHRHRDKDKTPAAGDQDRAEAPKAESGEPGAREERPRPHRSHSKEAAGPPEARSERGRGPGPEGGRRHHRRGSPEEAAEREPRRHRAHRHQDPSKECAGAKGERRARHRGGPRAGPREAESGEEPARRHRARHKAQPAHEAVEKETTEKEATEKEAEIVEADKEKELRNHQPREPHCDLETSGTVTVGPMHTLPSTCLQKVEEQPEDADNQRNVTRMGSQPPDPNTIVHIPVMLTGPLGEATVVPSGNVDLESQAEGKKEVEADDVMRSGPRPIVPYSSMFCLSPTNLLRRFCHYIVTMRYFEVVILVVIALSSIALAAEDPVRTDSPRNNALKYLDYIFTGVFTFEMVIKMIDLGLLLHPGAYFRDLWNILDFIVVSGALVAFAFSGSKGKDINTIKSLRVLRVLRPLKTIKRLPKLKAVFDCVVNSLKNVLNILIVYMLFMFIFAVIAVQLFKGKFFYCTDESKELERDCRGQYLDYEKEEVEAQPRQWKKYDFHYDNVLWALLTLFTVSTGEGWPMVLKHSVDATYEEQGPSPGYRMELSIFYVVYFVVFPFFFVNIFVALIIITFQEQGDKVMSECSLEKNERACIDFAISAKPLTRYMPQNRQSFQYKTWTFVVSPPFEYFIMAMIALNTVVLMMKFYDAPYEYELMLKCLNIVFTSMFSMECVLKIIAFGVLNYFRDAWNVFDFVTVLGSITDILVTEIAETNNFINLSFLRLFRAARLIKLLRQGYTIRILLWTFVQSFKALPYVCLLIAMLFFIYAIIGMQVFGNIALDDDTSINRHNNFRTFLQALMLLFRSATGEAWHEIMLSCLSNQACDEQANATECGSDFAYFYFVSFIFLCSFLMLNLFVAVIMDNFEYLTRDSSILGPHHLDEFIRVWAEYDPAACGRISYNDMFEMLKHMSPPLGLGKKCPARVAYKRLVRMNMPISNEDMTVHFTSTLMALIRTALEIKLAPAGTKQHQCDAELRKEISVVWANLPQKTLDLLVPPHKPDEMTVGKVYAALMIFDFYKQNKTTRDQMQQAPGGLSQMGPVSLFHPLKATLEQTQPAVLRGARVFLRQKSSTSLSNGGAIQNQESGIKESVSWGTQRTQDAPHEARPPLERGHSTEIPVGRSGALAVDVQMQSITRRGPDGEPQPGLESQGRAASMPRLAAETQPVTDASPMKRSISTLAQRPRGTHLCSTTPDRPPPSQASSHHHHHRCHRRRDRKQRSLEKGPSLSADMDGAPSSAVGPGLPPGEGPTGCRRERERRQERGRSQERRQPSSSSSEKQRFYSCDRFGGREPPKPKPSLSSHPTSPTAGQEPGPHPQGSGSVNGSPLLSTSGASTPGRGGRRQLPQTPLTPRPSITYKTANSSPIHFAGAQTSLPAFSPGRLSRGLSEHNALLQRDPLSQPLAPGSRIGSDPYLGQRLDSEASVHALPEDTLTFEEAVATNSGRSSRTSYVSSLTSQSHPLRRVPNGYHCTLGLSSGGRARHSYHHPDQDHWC
T5 sequence (Q02410 whole entry): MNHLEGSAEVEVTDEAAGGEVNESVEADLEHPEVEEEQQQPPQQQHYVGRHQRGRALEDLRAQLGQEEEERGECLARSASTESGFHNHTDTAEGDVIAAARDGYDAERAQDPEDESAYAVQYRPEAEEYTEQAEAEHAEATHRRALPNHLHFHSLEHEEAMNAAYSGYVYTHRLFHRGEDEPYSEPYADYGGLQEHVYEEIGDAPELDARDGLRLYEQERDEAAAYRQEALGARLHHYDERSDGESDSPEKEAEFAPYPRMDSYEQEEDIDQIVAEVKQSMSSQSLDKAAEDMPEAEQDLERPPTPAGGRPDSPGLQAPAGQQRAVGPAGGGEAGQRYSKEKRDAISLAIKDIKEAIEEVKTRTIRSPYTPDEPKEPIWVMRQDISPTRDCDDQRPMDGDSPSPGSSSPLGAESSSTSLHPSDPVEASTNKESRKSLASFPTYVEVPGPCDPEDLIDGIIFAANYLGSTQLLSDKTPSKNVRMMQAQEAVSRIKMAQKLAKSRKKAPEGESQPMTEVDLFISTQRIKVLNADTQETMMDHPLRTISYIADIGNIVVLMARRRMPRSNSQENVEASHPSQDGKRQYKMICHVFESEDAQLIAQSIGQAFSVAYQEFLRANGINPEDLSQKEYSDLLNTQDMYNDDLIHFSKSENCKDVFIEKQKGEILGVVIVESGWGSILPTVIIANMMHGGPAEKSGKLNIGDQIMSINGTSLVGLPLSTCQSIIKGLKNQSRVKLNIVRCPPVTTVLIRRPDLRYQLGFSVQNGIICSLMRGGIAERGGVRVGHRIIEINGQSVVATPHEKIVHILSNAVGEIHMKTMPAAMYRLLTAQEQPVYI

## Nc1cccc2cc(S(=O)(=O)O)ccc12
ORF 73
  AC50: 108 µM (active)
Protein skinhead-1
  IC50: > 100 µM (inactive)

## O=C(c1ccccc1)c1cc([N+](=O)[O-])ccc1N1CCOCC1
[1]
  IC50: > 80 µM (inactive)

## CCC(=O)Oc1ccc2c(c1)O/C(=C\c1ccco1)C2=O
ORF 73
  AC50: 14.1 µM (active)
[2]
  EC50: > 99 µM (inactive)
[3]
  EC50: 31.5 µM (inactive)

## COC(=O)c1ccc(Sc2nnnn2-c2ccccc2)c([N+](=O)[O-])c1
[4]
  CC50: 20.5 µM (active)
[5]
  CC50: > 20 µM (active)
cells
  IC50: 14.3 µM (active)

## CC(=O)c1cnc(-c2ccccc2)s1
[6]
  IC50: > 100 µM (inactive)
[7]
  IC50: > 100 µM (not active)

## CNC(=O)C1C(S)=NC(N)=C(C#N)C1c1ccccc1 (configuration not stated)
[8]
  IC50: 1.68 µM (active)
[9]
  EC50: 19 µM (active)
[10]
  IC50: > 50 µM (inactive)
[11]
  AC50: > 195 µM (inactive)

## CCC(=O)OC1c2ccccc2C(=O)N1Cc1ccccc1 (configuration not stated)
[6]
  IC50: > 100 µM (inactive)
[7]
  IC50: > 100 µM (not active)

## CC1CCCC(NC(=O)c2cn(C)c3ccc(S(=O)(=O)N4CCCC4)cc3c2=O)C1C (configuration not stated)
[6]
  IC50: > 100 µM (inactive)
[7]
  IC50: > 100 µM (not active)

## Cc1cc(C(=O)CSc2nc3cc(Cl)ccc3[nH]2)c(C)n1CC1CCCO1 (configuration not stated)
[12]
  IC50: 2.74 µM (active)
[13]
  IC50: 2.99 µM (active)

## Cc1nc([N+](=O)[O-])c(Br)n1CC(=O)c1ccccc1
[4]
  CC50: 40 µM (active)
[5]
  CC50: 18.6 µM (active)
cells
  IC50: 10.8 µM (active)

## O=c1c2ccccc2sn1-c1ccc(S(=O)(=O)N2CCOCC2)cc1
[14]
  IC50: > 50 µM (inactive)
Phosphomannomutase 2
  IC50: > 100 µM (inactive)
[15]
  IC50: 0.545 µM (active)

## [N-]=[N+]=Nc1cc([N+](=O)[O-])cc2sn(-c3ccccc3)c(=O)c12
[14]
  IC50: > 50 µM (inactive)
Phosphomannomutase 2
  IC50: 96.4 µM (active)
[15]
  IC50: 0.498 µM (active)

## C=CCOC(=O)/C=C/C(=O)NC(N)=O
[8]
  IC50: 7.61 µM (active)
[10]
  IC50: 2.95 µM (active)

## NS(=O)(=O)c1ccc(N/N=C/c2cn(-c3ccccc3)nc2-c2ccccc2)c([N+](=O)[O-])c1
[16]
  EC50: > 120 µM (not active)
[12]
  IC50: 1.05 µM (active)
[17]
  EC50: > 60 µM (not active)
[13]
  IC50: 3.46 µM (active)
H4
  EC50: > 120 µM (not active)
